Experimental data as given in patent US12653914B2, “Compounds for fast and efficient click release” (priority 2019, dated 2026).
Where two headings read alike, the source gives them in different places.

How the values were obtained:
[1] = Second order rate constants, TCO with tetrazine activators, stopped-flow spectrophotometry in PBS; settings: PBS at 37° C., 25 μM tetrazine, 50 μM TCO
Description: Second order rate constants for the reaction of tetrazines activators with 1.13 and 1.71 were determined using a SX20 stopped-flow spectrophotometer from Applied Photophysics. Measurements were performed at 37° C. with 25 μM tetrazine and 50 μM TCO in PBS, in triplicates, monitored at 535 nm. Data was analyzed using GraphPad Prism. Second order rate constants were determined from nonlinear fitting of the absorbance vs. time curves to the second order rate equation. […] Importantly, 2.17 and 2.18 are very reactive, but afford low release yields with TCO triggers that are not part of this invention (i.e. 1.71) [Versteegen et al., Angew. Chem. Int. Ed. 2013, 52, 14112-14116].

[2] = Second order rate constant, TCO derivatives with tetrazine 2.18, pseudo-first order, UV spectroscopy in MeCN; settings: reaction with 2.18 in MeCN at 20° C.; estimated from k1′
Description: Second order rate constant for the reaction between TCO derivatives and tetrazine 2.18 was determined under pseudo-first order conditions in MeCN at 20° C. by UV spectroscopy. A cuvette was filled with MeCN (3 mL) and equilibrated at 20° C. A solution of 2.18 (20 μL, 25 mM in DMSO) was added, followed by a solution of the TCO (5 μL 25 mM in DMSO). The absorption at 540 nm was monitored. The pseudo-first order reaction constant k1′ was calculated from the half-life of the decrease of this absorption, and the second order rate constant k2 was estimated from k1′ and the initial concentration of tetrazine: k2=k1′/c.

[3] = Release of constructs (C^A) from TCO triggers with tetrazines, HPLC-MS/PDA; settings: for Time point and release %: MeCN/PBS
Description: In another experiment, the release of TCO triggers was evaluated with a range of tetrazines. The constructs to be released included the drug doxorubicin, and methylamine as a model C^A. TCO-C^A conjugates (10 μL, 25 mM in DMSO) were diluted with MeCN ([…]) and PBS ([…]). Next, a solution of the tetrazine activator (20 μL 25 mM in DMSO) was added, and the release was evaluated by HPLC-MS/PDA. The results in Table 6 show complete C^A release in 5 min from all TCO triggers with all tested activators. Importantly, no release was observed from 1.42 and 1.62 upon reaction with 2.18, which supports Formula (19), wherein an amine being Y^T1, Y^T2 or Y^T3 cannot be bound to a carbonyl.

[4] = Release kinetics of 7-amino-4-methylcoumarin (AMC) in various media, fluorescence; settings: 5 μM 1.14, 7 μM activator 2.18
Description: 1.14 was reacted in PBS, DMEM buffer, full cell growth medium (DMEM+10% FBS) or human plasma at a concentration of 5 μM with activator 2.18 (7 μM) in a quartz cuvette while magnetic stirring. The increase of fluorescence due to the release of 7-amino-4-methylcoumarin (AMC) was monitored using a Perkin Elmer LS55 fluorescence spectrometer. […] In contrast, with TCO triggers not of this invention, 2.18 gives low and slow release [Versteegen et al., Angew. Chem. Int. Ed. 2013, 52, 14112-14116, Sarris et al., Chem Eur J 2018, 24, 18075-18081].

[5] = cited from earlier work
[6] = Dye (AF594) release efficiency from TCO-C^A conjugates with tetrazine activators, HPLC endpoint; settings: 25 μM TCO, 50 μM tetrazine, PBS 37° C., 48 h, n = 2, ±1%
Description: 1.15 and 1.72 (as control without an Y^T1 group) were reacted at a concentration of 25 μM with various tetrazine activators (50 μM) in PBS (DMSO content <1%) at 37° C. Samples were analyzed by HPLC (UV and fluorescence detection; 10-100% MeCN in water with 2.5 mM NH4OAc, pH 8.4) after 48 h to obtain endpoint data for the overall dye release efficiency (Table 5). […] Importantly, highly reactive tetrazines that normally give low release yields, now give quantitative release. Compare with [Versteegen et al., Angew. Chem. Int. Ed. 2013, 52, 14112-14116, Sarris et al., Chem Eur J 2018, 24, 18075-18081].

[7] = 5 min, tetrazine 2.18, released payload dimethylamine
[8] = 10 min, tetrazine 2.20, released payload doxorubicin

## O=C(NCCOCCOCCOCCO)O[C@H]1/C=C/CCCCC1 [Compound 1.71, reference compound]
[1]; activator 2.12
  k2: 280 ± 30 M⁻¹ s⁻¹
[1]; activator 2.17
  k2: 10300 ± 1200 M⁻¹ s⁻¹
[1]; activator 2.18
  k2: 9300 ± 500 M⁻¹ s⁻¹
[1]; activator 2.9
  k2: 80 ± 10 M⁻¹ s⁻¹

## C[Si](C)(C)CCOC(=O)N[C@H]1C/C=C/[C@H](O)CC[C@H]1CO [Compound 1.51, 2-(trimethylsilyl)ethyl N-[(1S,3E,5R,8R)-5-hydroxy-8-(hydroxymethyl)cyclooct-3-en-1-yl]carbamate]
[2]
  k2: 104 M⁻¹ s⁻¹

## CN(C)C(=O)O[C@@H]1/C=C/CCNCC1 (racemic) [Compound 1.63, (S,E)-1,2,3,4,7,8-Hexahydroazocin-4-yl dimethylcarbamate]
[3]; [7]
  Time point and release %: 5 min: 100%

## COC(=O)[C@]1(O)CC/C=C/[C@H](OC(=O)Nc2ccc3c(C)cc(=O)oc3c2)CC1 [Compound 1.14, Methyl(1S,4E,6R)-1-hydroxy-6-{[(4-methyl-2-oxo-2H-chromen-7-yl)carbamoyl]oxy}cyclooct-4-ene-1-carboxylate]
[4]; PBS and medium (neat or containing FBS)
  time to reach 100% AMC release: 1 to 3 min
[4]; human plasma
  time to complete AMC release: approximately 20 min

## COC(=O)[C@H]1CC[C@@H](OC(=O)N(C)C)/C=C/C[C@@H]1N [Compound 1.43, Methyl (1S,2S,4E,6R)-2-amino-6-((dimethylcarbamoyl)oxy)cyclooct-4-ene-1-carboxylate]
[3]; 5 min, tetrazines 2.1, 2.3, 2.15, 2.17, 2.18 (for all tested activators), released payload dimethylamine
  Time point and release %: 5 min: 100%
[2]
  k2: 27 M⁻¹ s⁻¹

## COC(=O)[C@H]1CC[C@@H](O)/C=C/C[C@@H]1NC(=O)OCC[Si](C)(C)C [Compound 1.40, Methyl (1S,2S,4E,6R)-6-hydroxy-2-({[2-(trimethylsilyl)ethoxy]carbonyl}amino)cyclooct-4-ene-1-carboxylate]
[2]
  k2: 39 M⁻¹ s⁻¹

## C[Si](C)(C)CCOC(=O)N1CC/C=C/C(O)CC1 (stereo not drawn) [Compound 1.60, 2-(Trimethylsilyl)ethyl (E)-4-hydroxy-3,4,7,8-tetrahydroazocine-1(2H)-carboxylate]
[2]
  k2: 277 M⁻¹ s⁻¹

## Cc1nnc(C)nn1 [3,6-bis-methyl-1,2,4,5-tetrazine]
[5]; release typically takes several hours
  maximum release yield: 80-90%

## COC(=O)[C@]1(O)CC/C=C/[C@H](OC(=O)N(C)c2ccc([C@@H](O)C(=O)O)cc2)CC1 [Compound 1.19, 2-Hydroxy-2-{4-[({[(1R,2E,6S)-6-hydroxy-6-(methoxycarbonyl)cyclooct-2-en-1-yl]oxy}carbonyl)(methyl)amino]phenyl}acetic acid]
[3]; 5 min, tetrazines 2.1, 2.3, 2.18 (for all tested activators), released payload 2-hydroxy-2-[4-(methylamino)phenyl]acetic acid
  Time point and release %: 5 min: 100%
[2]
  k2: 134 M⁻¹ s⁻¹

## COc1cccc2c1C(=O)c1c(O)c3c(c(O)c1C2=O)C[C@@](O)(C(=O)CO)C[C@@H]3O[C@@H]1C[C@H](NC(=O)O[C@@H]2/C=C/CCNCC2)[C@H](O)[C@H](C)O1 [Compound 1.65, TCO-doxorubicin]
[3]; [8]
  Time point and release %: 10 min: 100%

## TCO-PEG2-AF594 [Compound 1.15]
[6]; activator 2.10
  Release (%) of fluorescent dye (AF594): 99%
[6]; activator 2.11
  Release (%) of fluorescent dye (AF594): 99%
[6]; activator 2.12
  Release (%) of fluorescent dye (AF594): 92%
[6]; activator 2.13
  Release (%) of fluorescent dye (AF594): 99%
[6]; activator 2.14
  Release (%) of fluorescent dye (AF594): 99%
[6]; activator 2.16
  Release (%) of fluorescent dye (AF594): 92%
[6]; activator 2.17
  Release (%) of fluorescent dye (AF594): 96%
[6]; activator 2.18
  Release (%) of fluorescent dye (AF594): 99%
[6]; activator 2.19
  Release (%) of fluorescent dye (AF594): 99%
[6]; activator 2.6
  Release (%) of fluorescent dye (AF594): 93%
[6]; activator 2.9
  Release (%) of fluorescent dye (AF594): 98%

## CNC(=O)C[C@@H]1CC[C@H](OC(=O)N(C)C)/C=C/C[C@H]1O (relative stereo) [Compound 1.70, (rel-1S,5R,6S,E)-5-Hydroxy-6-(2-(methylamino)-2-oxoethyl)cyclooct-2-en-1-yl dimethylcarbamate]
[3]; [7]
  Time point and release %: 5 min: 100%

## CN(C)C(=O)O[C@@H]1/C=C/CCN(C(=O)OCC[Si](C)(C)C)CC1 (racemic) [Compound 1.62, 2-(Trimethylsilyl)ethyl (S,E)-4-((dimethylcarbamoyl)oxy)-3,4,7,8-tetrahydroazocine-1(2H)-carboxylate]
[3]
  release upon reaction with 2.18: no release
[2]
  k2: 80 M⁻¹ s⁻¹

## c1ccc(-c2nnc(-c3ccccn3)nn2)nc1 [3,6-bis-(2-pyridyl)-1,2,4,5-tetrazine]
[5]; PBS/MeCN (3:1)
  click release yield: 7%
[5]; serum
  click release yield: 12%

## COC(=O)[C@H]1CC[C@@H](OC(=O)N[C@H]2C[C@@H](OC3C[C@](O)(C(=O)CO)Cc4c(O)c5c(c(O)c43)C(=O)c3c(OC)cccc3C5=O)O[C@@H](C)[C@H]2O)/C=C/C[C@@H]1N (stereo partly drawn) [Compound 1.45, TCO-doxorubicin]
[3]; [8]
  Time point and release %: 10 min: 100%

## COC(=O)[C@H]1CC[C@@H](OC(=O)N(C)C)/C=C/C[C@@H]1NC(=O)OCC[Si](C)(C)C [Compound 1.42, Methyl (1S,2S,4E,6R)-6-((dimethylcarbamoyl)oxy)-2-(((2-(trimethylsilyl)ethoxy)carbonyl)amino)cyclooct-4-ene-1-carboxylate]
[3]; tetrazine 2.18, amine bound to a carbonyl (protected)
  release upon reaction with 2.18: no release

## CN(C)C(=O)OC[C@H]1CC[C@H](OC(=O)N(C)C)/C=C/C[C@H]1N (stereo in doubt) [Compound 1.54, (1S,5R,6S,E)-5-Amino-6-(((dimethylcarbamoyl)oxy)methyl)cyclooct-2-en-1-yl dimethylcarbamate]
[3]; [7]
  Time point and release %: 5 min: 50%
[2]
  k2: 38 M⁻¹ s⁻¹
